Here are results for 5 substances from publication PMC7224568 (PLoS Pathogens, 2020).

“Also recorded” adds a separate entry of the source.

Assay [1] concerns P14 T cells. In kind it is cell-based, mouse.
For assay [2], the system named is soluble TCR P14. In kind it is binding, mouse.
Assay [3] deals with P14 T cells. In kind it is cell-based, mouse. The source holds these as a separate data set.
Assay [4] concerns H-2D^b (pMHC complex). In kind it is binding, mouse.
Assay [5] concerns soluble TCR P14. In kind it is binding, mouse. The source holds these as a separate data set.
Assay [6] concerns P14 T cells. In kind it is cell-based, mouse. The source holds these as a separate data set.
The target of assay [7] is soluble P14 TCR (mouse). The assay is described as follows: ITC. For orientation: In ITC the heat of successive injections is recorded.
Assay [8] addresses soluble P14 TCR (mouse). Kind of assay: SPR. On the technique in general: Surface plasmon resonance follows binding to a sensor surface in real time, without labels.
In assay [9] the test system is P14 T cells. In kind it is cell-based, mouse. This is another data set of the same source.
Assay [10] relates to P14 T cells. In kind it is cell-based, mouse. This is another data set of the same source.
Assay [11] deals with TCR P14. Particulars: cited from earlier work.
The test system of assay [12] is T cell clone YF.F3. Particulars: cited from earlier work.

KAPYNFATM [Peptide V3P]: the “TNF and IFNγ production by P14 T cells (in words)” value in assay [1] is “induced significant production of TNF and IFNγ”. Further, in [2], the “thermodynamics of P14 binding (in words)” value is listed as “mainly enthalpy-driven with almost null contribution of entropy; also recorded: the energy required for P14 recognition of V3P is reduced compared to gp33; also recorded: reduced unfavorable entropic contribution”. Also, in assay [2] (pH 7.4), the TΔS was -0.5 ± 0.3 kcal/mol and the ΔH is -8.5 ± 0.5 kcal/mol. In addition, the “CD107a expression (degranulation) of P14 T cells (in words)” value in assay [3] is “induced significant production of TNF and IFNγ, as well as CD107a expression”. Also, the “pMHC complex thermal stability (in words)” value in assay [4] is reported as “consistent increase in pMHC complex thermal stability”. Also, in assay [4] (pH 7.5), the “Tm (50% protein denaturation), in Fig 1A” value was determined as 57.3 °C and the “Tm (temperature with 50% pMHC denaturation)” value came to 57.3±0.4 C. Further, in [5], the “P14 TCR binding to pMHC (in words)” value is “significantly higher binding affinity of soluble P14 TCR to H-2D^b/V3P compared to H-2D^b/gp33”. The “P14 TCR down-regulation / internalization (in words)” value in assay [6] is on record as “equaled or increased TCR internalization compared to gp33”.
Take “H-2D^b/gp33 (from UniProt P01887 21-119) (peptide-MHC)”: in assay [7], the Kd (in general, the equilibrium constant for the complex coming apart) came out at 5.8 µM and the dH is -10.2 kcal/mol. Also, the Kd in assay [8] was 8.6 µM.
Consider KAPFNFATM [Peptide V3P_Y4F], for which, in assay [9], the “TNF and IFNγ production by LCMV-activated P14 T cells (in words)” value is “produced TNF and IFNγ”. Also, the “tetramer recognition by LCMV-activated P14 T cells (in words)” value in [10] is given as “a significant amount of the activated P14 T cells recognized the H-2D^b/V3P_Y4F complex”.
Take KAVANFATM [Peptide Y4A]: the “agonist class (in words)” value in assay [11] is recorded as “semi-agonist”.
On to KAVYNFATM [gp33, reference compound], for which the “TNF and IFNγ production by P14 T cells (in words)” value in assay [1] is “induced significant production of TNF and IFNγ”. The “TNF and IFNγ production by LCMV-activated P14 T cells (in words)” value in assay [9] is “produced TNF and IFNγ”. For the same substance, the “thermodynamics of P14 binding (in words)” value in assay [2] is on record as “entropically unfavorable”. For the same substance, the “CD107a expression (degranulation) of P14 T cells (in words)” value in [3] is “induced significant production of TNF and IFNγ, as well as CD107a expression”. The “pMHC complex thermal stability (in words)” value in assay [4] is recorded as “equivalent thermal stability”. In assay [4] (pH 7.5), the “Tm (50% protein denaturation), in Fig 1A” value turned out to be 53.7 °C. Also, in assay [12], the “IFNγ production by clone YF.F3 (in words)” value is on record as “did not produce high amounts IFNγ against gp33” and the “killing of peptide-presenting targets by clone YF.F3 (in words)” value is given as “killed efficiently targets presenting gp33”. In assay [6], the “P14 TCR down-regulation / internalization (in words)” value is given as “induced significant TCR down-regulation”.
